Test results from ChEMBL document CHEMBL3585328, “Colloidal and antibacterial properties of novel triple-headed, double-tailed amphiphiles: exploring structure-activity relationships and synergistic mixtures” (Bioorg Med Chem, 2015).
Converted amounts (≈) assume the structure as drawn. The source made the active and inactive calls. The rule behind the calls is not given here.

Assays:
[1] = Critical aggregation concentration by at 37 degC isothermal titration calorimetry method; type: ADME
Bacillus cereus [2] = test: Antibacterial activity against Bacillus cereus assessed as inhibition of bacterial growth incubated for 72 hrs by CLSI based method; type: functional
Enterococcus faecalis [3] = test: Antibacterial activity against Enterococcus faecalis ATCC 29212 assessed as inhibition of bacterial growth incubated for 72 hrs by CLSI based method; type: functional; settings: ATCC 29212, 72 h
Streptococcus agalactiae [4] = test: Antibacterial activity against Streptococcus agalactiae J48 assessed as inhibition of bacterial growth incubated for 72 hrs by CLSI based method; type: functional; settings: J48, 72 h
Staphylococcus aureus [5] = test: Antibacterial activity against Staphylococcus aureus subsp. aureus ATCC 29213 assessed as inhibition of bacterial growth incubated for 72 hrs by CLSI based method; type: functional; settings: ATCC 29213, 72 h
Escherichia coli [6] = test: Antibacterial activity against Escherichia coli ATCC 25922 assessed as inhibition of bacterial growth incubated for 72 hrs by CLSI based method; type: functional; settings: ATCC 25922, 72 h
Pseudomonas aeruginosa [7] = test: Antibacterial activity against Pseudomonas aeruginosa ATCC 27853 assessed as inhibition of bacterial growth incubated for 72 hrs by CLSI based method; type: functional; settings: ATCC 27853, 72 h
Bacillus cereus [8] = test: Bactericidal activity against Bacillus cereus assessed as inhibition of bacterial growth incubated for 72 hrs followed by culture growth in Todd-Hewitt agar medium and incubated for 24 hrs at 37 degC; type: functional, organism-based
Enterococcus faecalis [9] = test: Bactericidal activity against Enterococcus faecalis ATCC 29212 assessed as inhibition of bacterial growth incubated for 72 hrs followed by culture growth in Todd-Hewitt agar medium and incubated for 24 hrs at 37 degC; type: functional, organism-based
Streptococcus agalactiae [10] = test: Bactericidal activity against Streptococcus agalactiae J48 assessed as inhibition of bacterial growth incubated for 72 hrs followed by culture growth in Todd-Hewitt agar medium and incubated for 24 hrs at 37 degC; type: functional, organism-based
Staphylococcus aureus [11] = test: Bactericidal activity against Staphylococcus aureus subsp. aureus ATCC 29213 assessed as inhibition of bacterial growth incubated for 72 hrs followed by culture growth in Todd-Hewitt agar medium and incubated for 24 hrs at 37 degC; type: functional, organism-based
Escherichia coli [12] = test: Bactericidal activity against Escherichia coli ATCC 25922 assessed as inhibition of bacterial growth incubated for 72 hrs followed by culture growth in Todd-Hewitt agar medium and incubated for 24 hrs at 37 degC; type: functional, organism-based
Pseudomonas aeruginosa [13] = test: Bactericidal activity against Pseudomonas aeruginosa ATCC 27853 assessed as inhibition of bacterial growth incubated for 72 hrs followed by culture growth in Todd-Hewitt agar medium and incubated for 24 hrs at 37 degC; type: functional, organism-based

Structure (SMILES) | CAC [1] [mM] | MIC (Bacillus cereus [2]) [µM] | MIC (Enterococcus faecalis [3]) [µM] | MIC (Streptococcus agalactiae [4]) [µM] | MIC (Staphylococcus aureus [5]) [µM] | MIC (Escherichia coli [6]) [µM] | MIC (Pseudomonas aeruginosa [7]) [µM] | Activity (Bacillus cereus [8]) | Activity (Enterococcus faecalis [9]) | Activity (Streptococcus agalactiae [10]) | Activity (Staphylococcus aureus [11]) | Activity (Escherichia coli [12]) | Activity (Pseudomonas aeruginosa [13])
CCCCCCCC[N+](C)(C)Cc1cc(C[n+]2ccccc2)cc(C[N+](C)(C)CCCCCCCC)c1 |  | > 250 | > 250 | > 250 | > 250 | > 250 | > 250 | Active | Active | Active | Active | Active | Active
CCCCCCCCCCCCCC[N+](C)(C)Cc1cc(C[N+](C)(C)C)cc(C[N+](C)(C)CCCCCCCCCCCCCC)c1.[Br-].[Br-].[Br-] | 0.61 | 4 | 4 | 2 | 4 | 8 | 125 | Active | Active | Active | Active | Active | Active
CCCCCCCCCCCCCCCC[N+](C)(C)Cc1cc(C[N+](C)(C)C)cc(C[N+](C)(C)CCCCCCCCCCCCCCCC)c1.[Br-].[Br-].[Br-] | 0.16 | 16 | 32 | 8 | 16 | 63 | > 250 | Active | Active | Active | Active | Active | Active
CCCCCCCCCC[N+](C)(C)Cc1cc(C[N+](C)(C)C)cc(C[N+](C)(C)CCCCCCCCCC)c1.[Br-].[Br-].[Br-] | 12 | 8 | 8 | 4 | 16 | 125 | > 250 | Active | Active | Active | Active | Active | Active
CCCCCCCCCCCCCCCC[N+](C)(C)Cc1cc(C[n+]2ccccc2)cc(C[N+](C)(C)CCCCCCCCCCCCCCCC)c1.[Br-].[Br-].[Br-] | 0.18 | > 250 | > 250 | > 250 | > 250 | > 250 | > 250 | Active | Active | Active | Active | Active | Active
CCCCCCCC[N+](C)(C)Cc1cc(C[N+](C)(C)C)cc(C[N+](C)(C)CCCCCCCC)c1 |  | > 250 | > 250 | > 250 | > 250 | > 250 | > 250 | Active | Active | Active | Active | Active | Active
CCCCCCCCCCCCCC[N+](C)(C)Cc1cc(C[n+]2ccccc2)cc(C[N+](C)(C)CCCCCCCCCCCCCC)c1.[Br-].[Br-].[Br-] | 0.6 | 8 | 4 | 4 | 4 | 16 | 63 | Active | Active | Active | Active | Active | Active

Further compounds by falling MIC (Pseudomonas aeruginosa [7]), results first:

CAC [1] [mM] | MIC (Bacillus cereus [2]) [µM] | MIC (Enterococcus faecalis [3]) [µM] | MIC (Streptococcus agalactiae [4]) [µM] | MIC (Staphylococcus aureus [5]) [µM] | MIC (Escherichia coli [6]) [µM] | MIC (Pseudomonas aeruginosa [7]) [µM] | Structure (SMILES) | Activity (Bacillus cereus [8]) | Activity (Enterococcus faecalis [9]) | Activity (Streptococcus agalactiae [10]) | Activity (Staphylococcus aureus [11]) | Activity (Escherichia coli [12]) | Activity (Pseudomonas aeruginosa [13])
14 | 8 | 8 | 8 | 2 | 16 | 63 | CCCCCCCCCC[N+](C)(C)Cc1cc(C[n+]2ccccc2)cc(C[N+](C)(C)CCCCCCCCCC)c1.[Br-].[Br-].[Br-] | Active | Active | Active | Active | Active | Active
2.5 | 2 | 2 | 2 | 2 | 4 | 16 | CCCCCCCCCCCC[N+](C)(C)Cc1cc(C[N+](C)(C)C)cc(C[N+](C)(C)CCCCCCCCCCCC)c1.[Br-].[Br-].[Br-] | Active | Active | Active | Active | Active | Active
2.4 | 2 | 2 | 1 | 2 | 4 | 8 | CCCCCCCCCCCC[N+](C)(C)Cc1cc(C[n+]2ccccc2)cc(C[N+](C)(C)CCCCCCCCCCCC)c1.[Br-].[Br-].[Br-] | Active | Active | Active | Active | Active | Active
 |  |  |  |  |  | 6.4 (≈ 2.99 µg/mL) | NC[C@H]1O[C@H](O[C@H]2[C@H](O)[C@@H](O[C@H]3O[C@H](CO)[C@@H](O)[C@H](N)[C@H]3O)[C@H](N)C[C@@H]2N)[C@H](N)C[C@@H]1O [TOBRAMYCIN] |  |  |  |  |  | 
